Measurements published in patent publication US10265321B2, “Uses of salt-inducible kinase (SIK) inhibitors” (Dana-Farber Cancer Institute, Inc., priority 2014, dated 2019).
Like-named read-outs stand apart in the source and are kept apart here.

Assays:
[1] = test system: IL-10 production by zymosan-stimulated BMDCs; experiment: IL-10 up-regulation in zymosan-stimulated BMDCs (AlphaLISA/ELISA); format: cell-based, mouse
Method: (§1) Bone marrow-derived DCs were differentiated from C57BL/6 bone marrow in the presence of GM-CSF-conditioned media. CD11c^+ CX3CR1^hi myeloid cells and CD11c^+ CX3CR1^− DCs were isolated from the small intestine lamina propria of Cx3cr1^eGFP/+ mice (12). Detection of cell-surface Thy1.1 expression on BMDCs from 10BiT reporter mice was conducted as described previously (24). Cell viability was estimated by change in total cellular ATP levels using CellTiterGlo assays (Promega). Preparation of recombinant SIK proteins and IC50 measurements were conducted as described previously (21). Total RNA was extracted using a NucleoSpin 96 RNA isolation kit (Macherey-Nagel) followed by cDNA synthesis and multiplex RT-PCR using a microfluidic dynamic array (Fluidigm). The concentrations of TNF-α, IL-6, IL-10, IL-12p40, IL-1β and RANTES in culture supernatants were detected using a FlexSet Cytometric bead array (BD Biosciences). Alternatively, IL-10 secretion was quantified using ELISA (BD Biosciences) or AlphaLISA (PerkinElmer) assays. NO production was estimated based on nitrate content in culture medium using the Greiss reagent.
C57BL/6 mice were euthanized and bone marrow harvested from femurs and tibias as described previously (Graham D B, et al. (2007) An ITAM-signaling pathway controls cross-presentation of particulate but not soluble antigens in dendritic cells. The Journal of experimental medicine 204(12):2889-2897). BMDCs were differentiated DMEM supplemented with 2 mM GlutaMAX, 10% (vol/vol) FBS, penicillin, streptomycin and 2% mouse GM-CSF conditioned media derived from TOPO cells. Cultures were differentiated for 7 days and routinely analyzed for >90% CD11c (APC anti-CD11c clone HL3; BD Biosciences) positivity by flow cytometry before use in experiments. Lentiviral transduction of bone marrow cultures was conducted by addition of 293T culture supernatants containing lentiviral particles encoding the CREB dependent luciferase reporter construct or CRTC3 targeting or control shRNAs one day post-isolation. Stable integration of lentiviral shRNA constructs was selected by addition of puromycin (3 μg/mL) on day 4 post-transduction. After 2 days, stably transduced BMDCs were released from selection and used in subsequent assays. Unless otherwise indicated, cells were treated for 2 days with PGE2 (5 μM) or HG-9-91-01 (0.5 μM) or an equivalent concentration of DMSO (≤0.5%) and then stimulated for 18 hr with LPS (100 ng/mL), R848 (10 μg/mL) or zymosan (4 μg/mL).
BMDCs were seeded into black 384-well plates (Corning) at 20,000 cells/well in 40 μL complete DMEM using a Multidrop COMBI (Thermal Scientific) followed by incubation at 37° C. for 2 hr to allow for plate adherence. SIK inhibitors (100 nL/well) were pin-transferred from concentrated DMSO stocks using CyBi-Well Vario (CyBio) into duplicate plates. For each treatment plate, 32 out of 384 wells were pinned with DMSO as negative control and 32 out of 384 wells were pinned with PGE2 (5 μM final concentration). Two days after SIK inhibitor treatment, BMDCs were stimulated with zymosan (4 μg/mL final concentration) dispersed in culture medium (20 μL/well) using a Multidrop COMBI. After 18 hr, 5 μL of resulting supernatant was transferred from the culture plate to white 384-well AlphaLISA plates (Perkin Elmer) using a CyBi-Well Vario. IL-10 abundance in the supernatants was determined using an AlphaLISA assay (PerkinElmer) according to the manufacture's protocol and signal intensity measured using an EnVision multimode plate reader. SIK inhibitor activity was expressed as a % of the differences between the mean abundance of IL-10 in PGE2 versus DMSO wells on a per plate basis. Cell viability assays were conducted on the same tissue culture plates as the IL-10 assay. First media was removed and replaced by solution of 50% (vol/vol) CellTiter-Glo (Promega) in PBS. […]

SIK2 = biological target: T1, SIK2 (Homo sapiens, UniProt Q9H0K1); experiment: Protein kinase assay ([γ-32P] ATP, phosphocellulose paper) against SIK2; format: biochemical; details: for remaining activity at 0.1 µM / remaining activity at 1 µM: DMSO set to 100%; for remaining activity at 0.1 µM: read-out: Activity of protein kinase treated with 0.1 μM of I-1 (% control (DMSO)) SIK2; for remaining activity at 1 µM: read-out: Activity of protein kinase treated with 1 μM of I-1 (% control (DMSO)) SIK2; for IC50: read-out: Enzyme Inhibition IC50 SIK2
T1 construct: made in house
Method: as §1
In another set of experiments, the activities of the SIK inhibitors described herein against SIK were determined according to the methods reported in Hastie et al., Nature Protocols, 2006, 1, 968-971.
This buffer consisted of 50 mM Tris-HCl, pH 7.5, 0.1 mM EGTA, 1 mg ml^−1 bovine serum albumin and 0.1% (vol/vol) 2-mercaptoethanol.
An assay buffer of 500 mM Tris-HCl, pH 7.5, 1 mM EGTA, and 100 mM magnesium acetate was used for the protein kinase assay.
The specific activity of the [γ-^32P] ATP solution was 1×10^5 to 1×10^6 c.p.m. per nmol depending on what was needed to produce an optimal signal/noise ratio. Stocks of nonradioactive (“cold”) ATP were dissolved in 10 mM HEPES, and the pH of the resulting stock solutions was adjusted to 7.4. To measure the concentration of ATP, a sample of such a stock solution was diluted to 20 μM, and the absorbance of the diluted sample was measured at 259 nm. The absorbance of a 20-μM stock solution of ATP at 259 nm was about 0.31. The 1-mM solution of cold ATP was “spiked” with [γ-^32P] ATP to produce a radioactivity of 1×10^5 to 1×10^6 c.p.m. per nmol.
1) The number of assay samples needed was determined based on, e.g., the following considerations: (i) each condition was assayed in duplicate; (ii) two controls containing peptide or protein substrate and ATP but no SIK were included to assess contamination by any free ATP not incorporated into substrate, alongside two controls lacking a peptide or protein substrate but containing ATP and SIK to correct for any incorporation of phosphate into the kinase itself (e.g., autophosphorylation); and (iii) a maximum of 40 samples were assayed manually at one time by a single person. Microcentrifuge tubes were label distinctly and were placed on ice.
4) Dilute the SIK in enzyme dilution buffer and place on ice.
5) Pipette 5 j±l of 10× concentrated assay buffer, 5 j±l peptide or protein substrate (the two “no-substrate” control tubes had 5 j±l water added instead of peptide or protein substrate), and 30 μl distilled water into each tube. Keep the tubes on ice.
6) Add 5 μl diluted SIK to each tube, except for the two “no-enzyme” control tubes, which had 5 μl enzyme dilution buffer added, and still keeping the tubes on ice. In some cases, premixed “cocktails” of assay components were prepared containing peptide or protein substrate, assay buffer, and distilled water to limit the number of additions to each assay tube. Each of steps 7 to 14 was done behind a plexiglass shield.
7) Insert each tube into the water bath at intervals of 15 s to allow the assay mixture to reach 30° C. Begin the SIK reactions by adding 5 μl of 1 mM [γ-^32P] ATP to each tube at intervals of 15 s. Close each tube, vortex for 1 s to mix the contents and immediately replace in a rack in the water bath. Incubate for 10 min at 30° C. […]

[2] = Mus musculus, BMDC, zymosan-stimulated BMDCs, read-out: IL-10 induction EC50

T1 sequence (Q9H0K1 whole entry): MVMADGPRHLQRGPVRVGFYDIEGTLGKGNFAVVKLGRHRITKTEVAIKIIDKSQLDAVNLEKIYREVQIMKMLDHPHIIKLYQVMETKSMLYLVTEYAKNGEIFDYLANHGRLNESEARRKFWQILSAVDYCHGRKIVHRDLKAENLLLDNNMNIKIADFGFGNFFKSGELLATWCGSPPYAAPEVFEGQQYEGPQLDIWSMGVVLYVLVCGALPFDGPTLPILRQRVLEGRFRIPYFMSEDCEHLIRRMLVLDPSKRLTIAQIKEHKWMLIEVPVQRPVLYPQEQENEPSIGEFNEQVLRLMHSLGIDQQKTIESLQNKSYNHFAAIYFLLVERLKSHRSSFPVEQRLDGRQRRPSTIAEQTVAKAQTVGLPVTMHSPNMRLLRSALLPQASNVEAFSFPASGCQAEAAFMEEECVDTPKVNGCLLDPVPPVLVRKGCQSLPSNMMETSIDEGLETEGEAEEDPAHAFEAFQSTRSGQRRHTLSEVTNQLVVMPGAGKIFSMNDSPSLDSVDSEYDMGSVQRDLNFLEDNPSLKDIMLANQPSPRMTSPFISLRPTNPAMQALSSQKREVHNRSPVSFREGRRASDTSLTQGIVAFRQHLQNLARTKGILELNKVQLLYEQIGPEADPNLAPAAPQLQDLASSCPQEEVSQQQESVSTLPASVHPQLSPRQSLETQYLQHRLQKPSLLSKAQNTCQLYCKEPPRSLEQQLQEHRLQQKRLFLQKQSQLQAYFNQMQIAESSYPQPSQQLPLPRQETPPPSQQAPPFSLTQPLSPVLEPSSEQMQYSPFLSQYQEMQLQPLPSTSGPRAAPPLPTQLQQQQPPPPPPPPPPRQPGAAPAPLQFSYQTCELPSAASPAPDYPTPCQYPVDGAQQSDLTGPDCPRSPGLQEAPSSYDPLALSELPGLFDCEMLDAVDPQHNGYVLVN

EC50 [1, 2]	remaining activity at 0.1 µM (SIK2)	remaining activity at 1 µM (SIK2)	IC50 (SIK2)	Compound	concentrations that suppressed/reduced zymosan-induced IL-10 production ([1]; BMDCs)	EC50 ([1]; BMDCs pre-treated 2 days, zymosan 18 hr, ELISA, read-out: EC50 of potentiation of zymosan-induced IL-10 production)
–	–	–	–	COc1ccc(N(C(=O)Nc2c(C)cccc2C)c2cc(Nc3ccc(N4CCN(C)CC4)cc3)ncn2)c(OC)c1 [HG-9-91-01]	greater than 1 μM	~200 nM
5620 nM	10%	5%	9.72 nM	Cc1cccc(C)c1NC(=O)N1C/C=C\COc2cccc(c2)Nc2cc1ncn2 [I-1]	–	–
1460 nM	37%	9%	65.1 nM	CCN1CCN(c2ccc(Nc3cc(-n4ccnc4Nc4c(C)cccc4C)ncn3)cc2)CC1 [II-1, 6-(2-((2,6-dimethylphenyl)amino)-1H-imidazol-1-yl)-N-(4-(4-ethylpiperazin-1-yl)phenyl)pyrimidin-4-amine]	–	–
